Experimental data from patent publication US9228224B2, “Method for assaying OGFOD1 activity” (ISIS INNOVATION LIMITED, priority 2011, dated 2016).

Experiments:
[1] = target: T1, OGFOD1 (hsOGFOD1_FL) (Homo sapiens, UniProt Q8N543); test: Thermal stability shift assay (SYPRO Orange); format: binding; settings: change in apparent protein melting temperature; compound 20 μM, 1 μM hsOGFOD1_FL, 50 μM MnCl2
T1 construct: His6 tag (N-terminal pET-28a leader); made in house; host or cells: E. coli BL21(DE3)
T1 sequence (Q8N543 1-542): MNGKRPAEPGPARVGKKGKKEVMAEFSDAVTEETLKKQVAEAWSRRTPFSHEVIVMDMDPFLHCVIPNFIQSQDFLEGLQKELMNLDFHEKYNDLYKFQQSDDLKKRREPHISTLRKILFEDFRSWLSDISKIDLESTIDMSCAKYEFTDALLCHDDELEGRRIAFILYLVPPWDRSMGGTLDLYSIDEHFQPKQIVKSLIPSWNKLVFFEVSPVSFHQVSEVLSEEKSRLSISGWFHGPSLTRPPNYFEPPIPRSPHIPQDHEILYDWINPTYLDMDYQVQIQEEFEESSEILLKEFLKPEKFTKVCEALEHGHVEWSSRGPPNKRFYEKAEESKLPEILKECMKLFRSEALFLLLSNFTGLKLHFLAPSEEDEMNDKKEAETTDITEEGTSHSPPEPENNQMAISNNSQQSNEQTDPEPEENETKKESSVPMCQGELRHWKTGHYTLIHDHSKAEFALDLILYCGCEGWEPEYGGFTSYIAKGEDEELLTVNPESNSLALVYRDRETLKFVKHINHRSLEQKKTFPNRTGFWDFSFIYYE
Experimental: Assays were conducted in 50 mM HEPES buffer, 150 mM NaCl, pH 7.5. A stock solution of MnCl2 (500 mM) in 20 mM HCl was prepared, and diluted to 5 mM with water. A master mix containing 2.085 mL buffer, 21 μL MnCl2 (5 mM, 50 μM final), 21 μL hsOGFOD1_FL (100 μM, 1 μM final), and 2.1 μL SYPRO Orange dye was prepared. The screen was conducted using stock solutions of compounds (400 μIM in DMSO) at a final concentration of 20 μM, by mixing 1 μL compound stock solution with 19 μL assay master mix. Incubations were performed in a white 96-well RT-PCR plate and subjected to thermal cycling as per an established protocol. Data was analysed in Microsoft Excel and GraphPad Prism.
The effect of small molecules on the stability of proteins to thermal denaturation was assessed by the change in apparent protein melting temperature, defined as the temperature at which equal amounts of folded and unfolded protein exist in solution. Unfolding was quantified by measurement of the fluorescence increase of SYPRO® Orange dye (Invitrogen) upon binding to hydrophobic residues that are exposed during unfolding. Approximately 400 small-molecule compounds were tested at a final concentration of 20 μM. Stabilization data for selected compounds are shown in below. Structures of the compounds are set out below.

[2] = target: T2, full-length OGFOD1 (Homo sapiens, UniProt Q8N543); test: 2OG turnover assay; format: biochemical; settings: 1 mM inhibitor, 37° C., 20 min
T2 construct: His6 tag (N-terminal pET-28a leader); made in house; host or cells: E. coli BL21(DE3)
T2 sequence (Q8N543 1-542): T1 sequence (Q8N543 1-542)
Experimental: Values shown are averages of two or three experiments. Error bars represent standard deviations. The assay was carried out for 20 min at 37° C. using 8 μM recombinant full-length human OGFOD1 (SEQ ID NO:1), 288 μM 2OG, 3.7 μM 1-[^14C]-2OG (specific activity […], stock concentration 1.83 mM), RPS23 peptide, 100 μM (NH4)2Fe(SO4)2, 4 mM ascorbate, 0.66 mg/ml catalase, 1 mM DTT, 50 mM Tris.HCl pH 7.5, and with one of OGFOD1, (NH4)2Fe(SO4)2 and ascorbate missing from the assay. The assay was also performed in the presence of 1 mM pyridine 2,4-dicarboxylic acid (2,4-PDCA).
Constructs of OGFOD1 encoding full-length protein or its C-terminal domain were tested for enzymatic activity using a 2OG turnover assay (Kivirikko and Myllyla (1982) Methods in Enzymology 82: […]). […]
These were diluted to a total volume of 100 μl with 50 mM Tris-Cl buffer, pH 7.5. […] The Eppendorf tubes containing the hyamine hydroxide were transferred to scintillation vials, mixed with 5 mL OptiPhase Liquid Scintillation Cocktail (Fisher Scientific) and total ^14C counts quantified using a Beckman LS6500 Multi-Purpose Scintillation Counter. Conversion of 2OG was calculated from the percentage of 1-[^14C]-2OG that had been converted into gaseous ^14CO2. […]

[3] = target: T3, OGFOD1 (Homo sapiens, UniProt Q8N543); test: MALDI-based hydroxylation assay, inhibitor screen; format: biochemical; settings: general statement in the description, no conditions given
T3 construct: His6 tag (N-terminal pET-28a leader); made in house; host or cells: E. coli BL21(DE3)
T3 sequence (Q8N543 1-542): T1 sequence (Q8N543 1-542)
Experimental: A library of 150 compounds comprising known and potential inhibitors of 2OG oxygenases was screened against OGFOD1 by a MALDI-based hydroxylation assay. Single-point measurements were conducted in duplicate, using 4 μM OGFOD1 at 100 μM final compound concentration in the presence of excess (300 μM) 2OG, with incubation at 37° C. for 30 min.

[4] = target: T3, OGFOD1; test: OGFOD1-mediated hydroxylation of RPS23 20mer peptide with generic 2OG oxygenase inhibitors; format: biochemical; settings: 1 mM inhibitor
Experimental: OGFOD1-mediated hydroxylation of the initially identified 20mer peptide sequence of human RPS23 was strictly dependent on presence of 2OG and Fe(II), and hydroxylation was reduced in presence of 1 mM of generic 2OG oxygenase inhibitors such as N-oxalyl glycine (NOG), pyridine 2,4-dicarboxylic acid (2,4-PDCA) and transition metal ions such as Co^II.

[5] = target: T3, OGFOD1; test: MALDI assay of OGFOD1 specificity towards RPS23 and RPS23-like peptides; format: biochemical; settings: peptide as substrate; 4 μM OGFOD1/100 μM peptide, 37° C., 30 min; symbols not defined
Experimental: To investigate the specificity of OGFOD1 towards variations in the sequence and length, multiple corresponding to RPS23 and RPS23-like sequences were synthesized and tested. MALDI assays were performed using a 1:25 protein:peptide (4 μM/100 μM) ratio, with incubation at 37° C. for 30 min.
Mutation of prolyl to alanine or isoleucine residues completely abolished hydroxylation, providing further evidence for OGFOD1 acting as a prolyl hydroxylase. […] This observation is consistent with the high evolutionary conservation of the amino acids following, but not of those preceding the prolyl (Pro-62) residue in RPS23.

Compound | Stabilization (° C.) [1] | further results
O=C(O)CCC(=O)NNC(=O)c1ccc2ccccc2c1 [Compound 2] | +7.1 °C | 
O=C(O)CCC(=O)Nc1ccc(Br)cn1 [Compound 6] | +7.0 °C | 
CC(NC(=O)C(=O)O)C(=O)O (centres unmarked) [Compound 9] | +6.3 °C | 
O=C(O)CCC(=O)NNS(=O)(=O)c1ccccc1 [Compound 3] | +7.1 °C | 
O=C(O)c1ccnc(C(=O)O)c1 [Compound 11, Pyridine 2,4-dicarboxylic acid] | +6.7 °C | OGFOD1-catalyzed 2OG turnover [2]: inhibited; inhibition of OGFOD1 prolyl hydroxylase activity [3]: inhibitory; hydroxylation of RPS23 20mer peptide [4]: reduced
CCC(=O)C1C(=O)CC(C(=O)O)CC1=O (centres unmarked) [Compound 8, Prohexadione] | +6.9 °C | 
O=C(O)CNC(=O)c1nc(Cl)c2ccccc2c1O [Compound 4, 2-(1-Chloro-4-hydroxyisoquinoline-3-carboxamido)acetic acid] | +7.0 °C | inhibition of OGFOD1 prolyl hydroxylase activity [3]: inhibit OGFOD1; inhibition of OGFOD1 prolyl hydroxylase activity ([3]; listed as FG2216): inhibitory
CODD: PHD2 C-terminal oxygen-dependent degradation domain (CODD) substrate of HIF-1α |  | Hydroxylation [5]: No hydroxylation
O=C(O)CNC(=O)C(=O)O [N-oxalylglycine] |  | inhibition of OGFOD1 prolyl hydroxylase activity [3]: inhibitory; hydroxylation of RPS23 20mer peptide [4]: reduced
N#Cc1ccc2c(=O)c(C(=O)O)c[nH]c2c1 [Compound 7] | +7.5 °C | 
O=C(O)c1cc(O)c(O)c(O)c1 [gallic acid] |  | inhibition of OGFOD1 prolyl hydroxylase activity [3]: inhibitory
O=C(O)CCNC(=O)c1nc2ccccc2cc1O [Compound 10] | +7.2 °C | 
O=C(O)CCC(=O)Nc1cc2ccccc2cn1 [Compound 1] | +8.4 °C | 
O=C(O)c1ccnc(-c2cc(C(=O)O)ccn2)c1 [Compound 5] | +7.5 °C | 
